What was measured:
MLL-AF6 = biological target: T1, MLL-AF6 (Homo sapiens, UniProt P55196+Q03164); assay: Western blot analysis of MLL-fusion protein proteolysis in MLL-AF6 positive cell line SHI-I; format: cell-based; conditions: SHI-I cells
T1 construct: AF6 (AFDN, P55196) portion as fusion partner; host or cells: SHI-I (SHI-1) human leukaemic cell line
Description: (§1) Human leukaemic cell lines (DSMZ) were cultured in Roswell Park Memorial Institute (RPMI) medium (Invitrogen), supplemented with 10% heat-inactivated FCS, 100 U/ml Penicillin (Invitrogen), 100 μg/ml Streptomycin (Invitrogen) and 2 mM L-glutamine (Invitrogen) (complete RPMI), or in Iscove's Modified Dulbecco's Medium (IMDM) (Invitrogen) supplemented with 20% heat-inactivated FCS, 100 U/ml Penicillin (Invitrogen), 100 μg/ml Streptomycin (Invitrogen) and 2 mM L-glutamine (Invitrogen)(complete IMDM).
(§2) SHI-I (MLL-AF6), THP-I (MLL-AF9) and MV4-11 (MLL-AF4) cell lines were treated with 300 nM of Disulfiram (Aldrich) or concentrations indicated and 1 μM of Copper chloride (Acros Organics) unless indicated otherwise for 16 hours.
(§3) Cells were lysed in Sample Reducing Buffer (200 mM DTT, 2% sodium dodecyl sulphate (SDS), 10% v/v Glycerol, 0.02% v/v Bromophenol Blue, 125 mM Tris HCl pH 6.8). The lysates were incubated for 5 minutes at 100° C., vortexed for 10 seconds and centrifuged at 13,200 rpm for 10 minutes at 4° C. The total cell lysate was then collected and stored at −20° C. or loaded immediately onto a polyacrylamide gel.
The whole cell lysate was electrophoresed in 7% Bis-Tris polyacrylamide gel and transferred to a odyssey nitrocellulose membrane (LI-COR).
After blocked for 1 hr for non-specific binding in PBS-T with 5% of non-fat milk, blots were incubated with primary antibodies (MLL, mouse monoclonal 1:2000, Millipore; Vinculin, rabbit monoclonal 1:10000, Abcam) overnight at 4° C., followed by secondary IRDye conjugated antibodies (mouse IEDye800CW 1:10000; rabbit IRDye680RD 1:10000, LI-COR) at room temperature.
Blots were visualized using the Odyssey CLx.
SHI-I (MLL-AF6), and THP-I (MLL-AF9) cell lines were treated with 300 nM of Diethyldithiocarbamate (Aldrich) and 1 μM of Copper chloride (Acros Organics) unless indicated otherwise for 16 hours.
SHI-I (MLL-AF6) cell line was treated with 100 nM or 75 nm of Disulfiram (Aldrich) and 100 nM of Auranofin or 10 μM of Curcumin supplemented with 1 μM of Copper chloride (Acros Organics) for 16 hours.

MLL-AF9 = biological target: T2, MLL-AF9 (Homo sapiens, UniProt P42568+Q03164); assay: Western blot analysis of MLL-fusion protein proteolysis in MLL-AF9 cells (V6MA.3, THP-1); format: cell-based
T2 construct: AF9 (MLLT3, P42568) portion as fusion partner; host or cells: THP-1 (endogenous fusion); V6MA.3 (MLL-AF9 immortalised cord blood)
Description: as §1, §2, §3
The whole cell lysate was electrophoresed in 7% Bis-Tris polyacrylamide gel and transferred to a odyssey nitrocellulose membrane (LI-COR). […]

MLL rearranged cells = assay: Methylcellulose colony formation assay; format: cell-based, human; conditions: 300 nM disulfiram; MLL rearranged cells vs other leukemic cell lines and CD34+ cord blood
Description: FIGS. 6A and 6B show, as explained in Example 1: in FIG. 6A, relative CFU corresponding to colony formation in MLL rearranged cells, other leukemic cell lines and CD34+ cord blood, in a methylcellulose colony formation assay after treatment of the cells with 300 nM disulfiram (equal numbers of cells were plated and normalised CFU frequency is shown, with error bars representing standard deviation); and, in FIG. 6B, the corresponding treated and control plates themselves.

MLL fusion proteins = assay: Western blot, proteolysis of MLL fusion proteins (effect of copper; primary patient sample); format: cell-based, human
HOXA9/HOXA10 and MEIS1 = assay: RT-qPCR analysis of MLL target gene expression in SHI-I cells; format: cell-based, human; conditions: 16 hrs of treatment
Description: as §2

H3K4me3 = assay: Western blot analysis of H3K4me3 in MLL rearranged cell lines; format: cell-based, human; conditions: various MLL rearranged cell lines, 16 hrs in the presence of copper
[1] = tested on: MLL-AF9 and MLL-AF4 profiles; assay: Gene Set Enrichment Analysis of treated SHI-I cells; format: cell-based, human; conditions: 16 hrs in the presence of copper
Description: as §2

[2] = 16 hrs treatment in the presence of copper

T1 sequence (Q03164 1146-1214 limits assumed, one chain of several): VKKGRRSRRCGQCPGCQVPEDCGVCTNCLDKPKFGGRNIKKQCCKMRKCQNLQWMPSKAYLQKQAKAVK
T2 sequence (Q03164 1147-1203 limits assumed, one chain of several): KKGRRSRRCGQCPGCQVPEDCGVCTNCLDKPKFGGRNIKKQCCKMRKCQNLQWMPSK

SMILES	proteolysis of the MLL-fusion protein (Western blot) (MLL-AF6; [2])	proteolysis of the MLL-fusion protein (Western blot) (MLL-AF9; MLL-AF9 positive cell line THP-1, 16 hrs treatment in the presence of copper)	proteolysis of the MLL-fusion protein (Western blot) (MLL-AF6; 16 hrs, in the presence of copper, with or without thioredoxin reductase inhibitors Auranofin and Curcumin)	relative CFU corresponding to colony formation (MLL rearranged cells)	proteolysis of the MLL-fusion protein (Western blot) (MLL fusion proteins)	MLL target gene expression level of HOXA9/HOXA10 and MEIS1, normalised to 18S (RT-qPCR) (HOXA9/HOXA10 and MEIS1)	proteolysis of the MLL-fusion protein (Western blot) (MLL-AF9; MLL-AF9 immortalised cord blood V6MA.3, 16 hrs treatment in the presence of copper)	H3K4me3 level (Western blot) (H3K4me3)	Gene Set Enrichment Analysis versus published MLL-AF9 and MLL-AF4 profiles [1]
CCN(CC)C(=S)S [diethyldithiocarbamate, Diethyldithiocarbamic acid]	showing proteolysis of the MLL-fusion protein	showing proteolysis of the MLL-fusion protein							
CCN(CC)C(=S)SSC(=S)N(CC)CC [disulfiram]	showing proteolysis of the MLL-fusion protein		showing proteolysis of the MLL-fusion protein	substantially higher effect than in other (non-MLL) leukemic cell lines and CD34+ cord blood	showing proteolysis of the MLL-fusion protein in a primary patient sample	efficient down-regulation of the target genes	showing proteolysis of the MLL-fusion protein	showing a decrease in H3K4me3	negative enrichment to both published MLL-AF9 and MLL-AF4 profiles

— US11071720B2, “Cancer therapy” (UCL Business Ltd, priority 2016, dated 2021)
